# Measurements from patent US10219516B2, “Molecules having pesticidal utility, and intermediates, compositions, and processes, related thereto” (priority 2015, dated 2019).
# Read-outs that look alike come from different tables or passages of the source.
# Key:
# Type in all cases: in vivo
# [1] = tested on: Cabbage Looper (Trichoplusia ni, TRIPNI); test: Bioassay on Cabbage Looper (CL), 128-well diet tray assay; details: Trichoplusia ni
# Method in brief: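 Percent mortality, averaged across eight replicate wells, was scored after five to seven days at 25° C. under a 14:10 light-dark cycle. Each well held one to five second instar larvae on artificial diet treated at 50 μg/cm^2 with compound from 90:10 acetone-water, allowed to dry before infestation.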
# [2] = tested on: Green Peach Aphid (Myzus persicae, MYZUPE); test: Bioassay on Green Peach Aphid (GPA), foliar spray on infested cabbage seedlings; details: 72 h
# Method in brief: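 Cabbage seedlings (2-3 true leaves) infested with 20-50 wingless adult and nymph aphids one day before treatment; sprayed to runoff at 200 ppm in 0.025% Tween 20 water with 20% acetone/methanol, four pots per treatment. Held three days at about 25° C; live aphids counted, % control by Abbott's correction versus solvent check.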
# [3] = tested on: Beet Armyworm (Spodoptera exigua, LAPHEG); test: Bioassay on Beet Armyworm (BAW), 128-well diet tray assay
# Method in brief: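 Percent mortality, averaged across eight replicate wells, was scored after five to seven days at 25° C. under a 14:10 light-dark cycle. Each well's diet carried 50 μg/cm^2 of the dried test molecule and held one to five second instar larvae.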
# [4] = tested on: Yellow Fever Mosquito (Aedes aegypti, AEDSAE); test: Bioassay on Yellow Fever Mosquito (YFM), 96-well plate larval assay; details: for YFM (Biological Results, rating): Species YFM (Yellow Fever Mosquito); for YFM rating: Yellow Fever Mosquito, 96-well plate larval assay
# Method in brief: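 Compound stocks at 4000 ppm in DMSO were diluted with 90:10 water/acetone, and 15 μL aliquots were dispensed into six replicate plates. About 1-day-old larvae in liver-powder water were added per well. Plates were covered and held at room temperature for 3 days before each well was scored for mortality.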
# [5] = Species CL (Cabbage Looper), read-out: CL (Biological Results, rating)
# [6] = foliar, Species GPA (Green Peach Aphid), read-out: GPA (Biological Results, rating)
# [7] = Species BAW (Beet Armyworm), read-out: BAW (Biological Results, rating)
# [8] = Cabbage Looper, 128-well diet tray assay, read-out: CL rating
# [9] = Green Peach Aphid, foliar spray on cabbage seedlings, read-out: GPA rating
# [10] = Beet Armyworm, 128-well diet tray assay, read-out: BAW rating
smiles,measurement,setting,value
"O=C(Nc1c(F)cccc1F)c1cc(NC(=O)[C@H]2[C@H](c3ccc(Cl)c(F)c3)C2(Cl)Cl)ccc1Cl (relative stereo) [F163, trans-2-Chloro-5-(2,2-dichloro-3-(4-chloro-3-fluorophenyl)cyclopropane-1-carboxamido)-N-(2,6-difluorophenyl)benzamide]",pest or weed control at 50 µg/cm2,[1]; [5],50 to 100%
same,pest or weed control at 200 µg/mL,[2]; [6],0 to 80%
same,pest or weed control at 50 µg/cm2,[3]; [7],50 to 100%
same,"YFM (Biological Results, rating)",[4],B (More than 0-Less than 80)
"O=C(Nc1ccc(F)cc1F)c1cc(NC(=O)[C@H]2[C@H](c3cc(F)cc(C(F)(F)F)c3)C2(Cl)Cl)ccc1Cl (relative stereo) [F412, 2-Chloro-5-(trans)-(2,2-dichloro-3-(3-fluoro-5-(trifluoromethyl)phenyl)cyclopropane-1-carboxamido)-N-(2,4-difluorophenyl)benzamide]",pest or weed control at 50 µg/cm2,[1]; [8],50 to 100%
same,pest or weed control at 200 µg/mL,[2]; [9],80 to 100%
same,pest or weed control at 50 µg/cm2,[3]; [10],50 to 100%
same,YFM rating,[4],A (80-100)
"O=C(Nc1ccc(F)cc1F)c1cc(NC(=O)[C@H]2[C@H](c3cc(F)cc(Br)c3)C2(Cl)Cl)ccc1Cl (relative stereo) [F423, 5-(trans)-(3-(3-Bromo-5-fluorophenyl)-2,2-dichlorocyclopropane-1-carboxamido)-2-chloro-N-(2,4-difluorophenyl)benzamide]",pest or weed control at 50 µg/cm2,[1]; [8],50 to 100%
same,pest or weed control at 200 µg/mL,[2]; [9],80 to 100%
same,pest or weed control at 50 µg/cm2,[3]; [10],50 to 100%
same,YFM rating,[4],A (80-100)
"O=C(Nc1cnc2[nH]ccc2c1)c1cc(NC(=O)[C@H]2[C@H](c3cc(Cl)cc(Cl)c3)C2(Cl)Cl)ccc1Cl (relative stereo) [F481, 2-Chloro-5-(trans)-(2,2-dichloro-3-(3,5-dichlorophenyl)cyclopropane-1-carboxamido)-N-(1H-pyrrolo[2,3-b]pyridin-5-yl)benzamide]",pest or weed control at 50 µg/cm2,[1]; [8],50 to 100%
same,pest or weed control at 200 µg/mL,[2]; [9],0 to 80%
same,pest or weed control at 50 µg/cm2,[3]; [10],50 to 100%
same,YFM rating,[4],A (80-100)
"O=C(Nc1ccc(F)cc1)c1cc(NC(=O)[C@H]2[C@H](c3ccc(F)c(Cl)c3)C2(Cl)Cl)ccc1Cl (relative stereo) [PF4, trans-2-Chloro-5-(2,2-dichloro-3-(3-chloro-4-fluorophenyl)cyclopropane-1-carboxamido)-N-(4-fluorophenyl)benzamide]",pest or weed control at 50 µg/cm2,[1]; [8],50 to 100%
same,pest or weed control at 200 µg/mL,[2]; [9],80 to 100%
same,pest or weed control at 50 µg/cm2,[3]; [10],50 to 100%
same,YFM rating,[4],B (More than 0-Less than 80)
"CN(C(=O)c1cc(NC(=O)[C@H]2[C@H](c3ccc(F)c(Cl)c3)C2(Cl)Cl)ccc1Cl)c1ccc(F)cc1 (relative stereo) [PF5, trans-2-Chloro-5-(2,2-dichloro-3-(3-chloro-4-fluorophenyl)cyclopropane-1-carboxamido)-N-(4-fluorophenyl)-N-methylbenzamide]",pest or weed control at 50 µg/cm2,[1]; [8],50 to 100%
same,pest or weed control at 200 µg/mL,[2]; [9],80 to 100%
same,pest or weed control at 50 µg/cm2,[3]; [10],50 to 100%
same,YFM rating,[4],A (80-100)
"COCC(=O)N(C)c1ccc(NC(=O)c2cc(NC(=O)[C@H]3[C@H](c4cc(Cl)cc(Cl)c4)C3(Cl)Cl)ccc2Cl)cc1 (relative stereo) [PF31, trans-2-Chloro-5-(2,2-dichloro-3-(3,5-dichlorophenyl)cyclopropane-1-carboxamido)-N-(4-(2-methoxy-N-methylacetamido)phenyl)benzamide]",pest or weed control at 50 µg/cm2,[1]; [8],50 to 100%
same,pest or weed control at 200 µg/mL,[2]; [9],0 to 80%
same,pest or weed control at 50 µg/cm2,[3]; [10],50 to 100%
same,YFM rating,[4],B (More than 0-Less than 80)
"CN(C(=O)c1cc(NC(=O)[C@H]2[C@H](c3ccc(Cl)c(F)c3)C2(Cl)Cl)ccc1Cl)c1ccc(F)cc1 (relative stereo) [PF35, trans-2-Chloro-5-(2,2-dichloro-3-(4-chloro-3-fluorophenyl)cyclopropane-1-carboxamido)-N-(4-fluorophenyl)-N-methylbenzamide]",pest or weed control at 50 µg/cm2,[1]; [8],50 to 100%
same,pest or weed control at 200 µg/mL,[2]; [9],80 to 100%
same,pest or weed control at 50 µg/cm2,[3]; [10],50 to 100%
same,YFM rating,[4],A (80-100)
"CN(C(=O)c1cc(NC(=O)[C@H]2[C@H](c3cc(Cl)cc(Br)c3)C2(Cl)Cl)ccc1Cl)c1ccc(F)cc1 (relative stereo) [PF38, trans-5-(3-(3-Bromo-5-chlorophenyl)-2,2-dichlorocyclopropane-1-carboxamido)-2-chloro-N-(4-fluorophenyl)-N-methylbenzamide]",pest or weed control at 50 µg/cm2,[1]; [8],50 to 100%
same,pest or weed control at 200 µg/mL,[2]; [9],80 to 100%
same,pest or weed control at 50 µg/cm2,[3]; [10],50 to 100%
same,YFM rating,[4],A (80-100)
"N#Cc1cc(F)ccc1NC(=O)c1cc(NC(=O)[C@H]2[C@H](c3cc(Cl)cc(Cl)c3)C2(Cl)Cl)ccc1Cl (relative stereo) [PF67, trans-2-Chloro-N-(2-cyano-4-fluorophenyl)-5-(2,2-dichloro-3-(3,5-dichlorophenyl)cyclopropane-1-carboxamido)benzamide]",pest or weed control at 50 µg/cm2,[1]; [8],50 to 100%
same,pest or weed control at 200 µg/mL,[2]; [9],80 to 100%
same,pest or weed control at 50 µg/cm2,[3]; [10],50 to 100%
same,YFM rating,[4],B (More than 0-Less than 80)
"O=C(Nc1ccc(F)cc1C(F)(F)F)c1cc(NC(=O)[C@H]2[C@H](c3cc(Cl)cc(Cl)c3)C2(Cl)Cl)ccc1Cl (relative stereo) [PF69, trans-2-chloro-5-(2,2-dichloro-3-(3,5-dichlorophenyl)cyclopropane-1-carboxamido)-N-(4-fluoro-2-(trifluoromethyl)phenyl)benzamide]",pest or weed control at 50 µg/cm2,[1]; [8],50 to 100%
same,pest or weed control at 200 µg/mL,[2]; [9],80 to 100%
same,pest or weed control at 50 µg/cm2,[3]; [10],50 to 100%
same,YFM rating,[4],B (More than 0-Less than 80)
"O=C(Nc1cccc(C(F)(F)F)c1)c1cc(NC(=O)[C@H]2[C@H](c3cc(Cl)cc(Cl)c3)C2(Cl)Cl)ccc1Cl (relative stereo) [PF71, trans-2-Chloro-5-(2,2-dichloro-3-(3,5-dichlorophenyl)cyclopropane-1-carboxamido)-N-(3-(trifluoromethyl)phenyl)benzamide]",pest or weed control at 50 µg/cm2,[1]; [8],50 to 100%
same,pest or weed control at 200 µg/mL,[2]; [9],0 to 80%
same,pest or weed control at 50 µg/cm2,[3]; [10],50 to 100%
same,YFM rating,[4],A (80-100)
"O=C(Nc1cccc([N+](=O)[O-])c1)c1cc(NC(=O)[C@H]2[C@H](c3cc(Cl)cc(Cl)c3)C2(Cl)Cl)ccc1Cl (relative stereo) [PF73, trans-2-Chloro-5-(2,2-dichloro-3-(3,5-dichlorophenyl)cyclopropane-1-carboxamido)-N-(3-nitrophenyl)benzamide]",pest or weed control at 50 µg/cm2,[1]; [8],50 to 100%
same,pest or weed control at 200 µg/mL,[2]; [9],80 to 100%
same,pest or weed control at 50 µg/cm2,[3]; [10],50 to 100%
same,YFM rating,[4],B (More than 0-Less than 80)
"O=C(Nc1ccsc1)c1cc(NC(=O)[C@H]2[C@H](c3cc(Cl)cc(Cl)c3)C2(Cl)Cl)ccc1Cl (relative stereo) [PF152, trans-2-Chloro-5-(2,2-dichloro-3-(3,5-dichlorophenyl)cyclopropane-1-carboxamido)-N-(thiophen-3-yl)benzamide]",pest or weed control at 50 µg/cm2,[1]; [8],50 to 100%
same,pest or weed control at 200 µg/mL,[2]; [9],0 to 80%
same,pest or weed control at 50 µg/cm2,[3]; [10],50 to 100%
same,YFM rating,[4],B (More than 0-Less than 80)
"O=C(Nc1ccc(F)cc1)c1cc(NC(=O)[C@H]2[C@H](c3cc(Cl)cc(Cl)c3)C2(Cl)Cl)ccc1Cl [F165, 2-Chloro-5-((1R,3R)-2,2-dichloro-3-(3,5-dichlorophenyl)cyclopropane-1-carboxamido)-N-(4-fluorophenyl)benzamide]",pest or weed control at 50 µg/cm2,[1]; [5],50 to 100%
same,pest or weed control at 200 µg/mL,[2]; [6],80 to 100%
same,pest or weed control at 50 µg/cm2,[3]; [7],50 to 100%
same,"YFM (Biological Results, rating)",[4],B (More than 0-Less than 80)
"O=C(Nc1ccc(F)cc1)c1cc(NC(=O)[C@H]2[C@H](c3cc(Cl)c(Cl)c(Cl)c3)C2(Cl)Cl)ccc1Cl [F279, 2-Chloro-5-((1R,3R)-2,2-dichloro-3-(3,4,5-trichlorophenyl)cyclopropane-1-carboxamido)-N-(4-fluorophenyl)benzamide]",pest or weed control at 50 µg/cm2,[1]; [5],50 to 100%
same,pest or weed control at 200 µg/mL,[2]; [6],80 to 100%
same,pest or weed control at 50 µg/cm2,[3]; [7],50 to 100%
same,"YFM (Biological Results, rating)",[4],A (80-100)
"O=C(Nc1ccc(F)cc1)c1cc(NC(=O)[C@@H]2[C@@H](c3cc(Cl)c(Cl)c(Cl)c3)C2(Cl)Cl)ccc1Cl [F280, 2-Chloro-5-((1S,3S)-2,2-dichloro-3-(3,4,5-trichlorophenyl)cyclopropane-1-carboxamido)-N-(4-fluorophenyl)benzamide]",pest or weed control at 50 µg/cm2,[1]; [5],50 to 100%
same,pest or weed control at 200 µg/mL,[2]; [6],0 to 80%
same,pest or weed control at 50 µg/cm2,[3]; [7],50 to 100%
same,"YFM (Biological Results, rating)",[4],A (80-100)
"C#CCN(C(=O)c1cc(NC(=O)[C@H]2[C@H](c3ccc(F)c(Cl)c3)C2(Cl)Cl)ccc1Cl)c1ccc(F)cc1F [F414, 2-Chloro-5-((1R,3R)-2,2-dichloro-3-(3-chloro-4-fluorophenyl)cyclopropane-1-carboxamido)-N-(2,4-difluorophenyl)-N-(prop-2-yn-1-yl)benzamide]",pest or weed control at 50 µg/cm2,[1]; [8],50 to 100%
same,pest or weed control at 200 µg/mL,[2]; [9],80 to 100%
same,pest or weed control at 50 µg/cm2,[3]; [10],50 to 100%
same,YFM rating,[4],A (80-100)
